{"source": "patent US11285148B1", "about": "(King Abdulaziz University, priority 2021, dated 2022)", "origin": "cited, not measured here", "tested_on": "yeast isolates obtained from cases of keratitis"}
{"smiles": "CC(=O)N1CCN(c2ccc(OCC3COC(Cn4ccnc4)(c4ccc(Cl)cc4Cl)O3)cc2)CC1", "note": "(stereo not shown) [KET, Ketoconazole]", "values": [{"measurement": "Minimum inhibitory concentration", "result": "0.015 to 0.125", "unit": "µg/mL"}]}
